Patent US4819645A, “Dermal substance collection method” (priority 1987, dated 1989)
Read-outs that look alike come from different tables or passages of the source.

Experiments:
[1] = format: in vivo, Rhesus monkey; details: 14C-parathion intravenously; activated charcoal gel DSCD, skin pre-treated with Azone
Excerpt: Extensive In vivo testing of the dermal substance collection device (DSCD) has been undertaken in rabbits (R, Rhesus monkeys (M) and humans (H). […]. Experimental conditions were varied in order to evaluate various binding reservoirs including activated charcoal dispersed in a saline/gel matrix, various DSCD embodiments which provide a liquid bridge including saline, immobilized by various gels such as agarose or polyvinyl alcohol as the gelling agent, various DSCD embodiments which provide persistent occlusive contact of the liquid bridge with the skin (single layer adhesive tape overlying the DSCD liquid bridge/binding reservoir complex vs multiple tape/foil layers enveloping a liquid bridge/binding reservoir complex vs multiple tape/foil layers enveloping a liquid bridge/binding reservoir complex which protrudes into the skin effecting positive pressure during emplacement), various preparatory procedures (shaving, clipping of hair, use of a chemical depilitant, cleansing of the skin with soap and isopropyl alcohol), and various skin penetration enhancing agents (Azone, DET, DMSO).
In a typical animal experiment, a Rhesus monkey is anesthetized with ketamine 10 mg/kg and the hair on the chest and abdomen is clipped prior to washing the underlying skin (with a mild soap or isopropyl alcohol). […]

[2] = Rhesus monkeys, maximum percentage of administered dose collected, liquid bridge diameter 9 mm
[3] = Collection of cimetidine by DSCDs in a healthy volunteer; details: 5 mg/kg orally or intravenously, 24 hours, 25 mm liquid bridge, agarose gel with activated charcoal
[4] = Collection of THC by DSCDs after oral THC, RIA after toluene/ethanol extraction; details: cancer patient, oral 10 mg THC, up to 48 hours, lower legs, 1 cm gel
[5] = parent compound and metabolites

Compound: CCOP(=S)(OCC)Oc1ccc([N+](=O)[O-])cc1 [14C-parathion]
- transdermal collection (in words) [1]: particularly satisfactory transdermal collection

Compound: CN/C(=N/CCSCc1nc[nH]c1C)NC#N [CIMETIDINE, cimetidine]
- EXTENT OF TRANSDERMAL MIGRATION ([2]; parent compound only): 8.3 % Dose × 10^4
- amount of cimetidine collected from DSCDs [3]: 62 to 461 ng

Compound: CN1CCCC1c1cccnc1 (stereo not shown) [NICOTINE, nicotine]
- EXTENT OF TRANSDERMAL MIGRATION [2, 5]: 2.5 % Dose × 10^4

Compound: CCOP(=S)(OCC)Oc1ccc([N+](=O)[O-])cc1 [PARATHION, parathion]
- EXTENT OF TRANSDERMAL MIGRATION [2, 5]: 0.7 % Dose × 10^4

Compound: CCCCCc1cc(O)c2c(c1)OC(C)(C)[C@@H]1CCC(C)=C[C@@H]21 [TETRAHYDROCANNABINOL]
- EXTENT OF TRANSDERMAL MIGRATION ([2]; parent compound only): 0.1 % Dose × 10^4
- amount of THC collected from DSCDs ([4]; agarose gel without activated charcoal): 224 ± 22 pg
- amount of THC collected from DSCDs ([4]; gel with activated charcoal): 601 ± 302 pg

Compound: Cn1c(=O)c2[nH]cnc2n(C)c1=O [THEOPHYLLINE, theophylline]
- EXTENT OF TRANSDERMAL MIGRATION [2, 5]: 25 % Dose × 10^4

Compound: inulin
- EXTENT OF TRANSDERMAL MIGRATION [2, 5]: 0.5 % Dose × 10^4
